Measurements as given in patent publication US10357486B2, “Treatment of cognitive impairment with PDE4 inhibitor” (Universiteit Maastricht, priority 2013, dated 2019).
Marks after values point to notes of the source that are not given here.

How the values were obtained:
[1] = Plasma concentration levels of roflumilast and roflumilast-N-oxide in humans; type: in vivo, human
From the text: An interim analysis has been performed based on the data of 9 subjects of the Impaired Elderly group and 4 subjects of the Healthy Elderly group. For this purpose, cognitive battery test scores (VLT, SMT, Stroop task and BL-VAS) and concentrations of roflumilast and roflumilast-N-oxide in plasma have been analysed and summarized by dose over each scheduled sampling time using descriptive statistics.

phosphodiesterase 4 = conditions: after administration of roflumilast; stated as believed; cited from earlier work
[2] = system: spatial memory in male C57BL/6NCrl mice; experiment: Object Location Task (OLT), 24-hour retention interval; type: in vivo; conditions: for d2 index, discrimination index between the new and familiar objects for T2: given 3 hours after T1, T2 after 24 h, mean (SEM)
From the text: The objective of this study was to evaluate the cognitive improvement effects of Roflumilast on spatial memory employing Object Location Task (OLT) in male C57BL/6NCrl mice. Roflumilast was compared with data of the already established PDE4 inhibitor Rolipram in the same model.
Maintenance of Animals Twenty-four 7 month-old male C57BL/6NCrl mice (Charles River, L'Arbresle, France) were used (average body weights: 27.6 g). The animals were kept under a 12/12-hour light/dark cycle (lights on from 07.00 pm to 07.00 am) with free access to food and water. All testing was done between 09.00 am and maximally 06.00 pm.
Preparation of Compounds for Administration Both rolipram (Sigma-Aldrich St. Louis, USA; MW 275.34) and roflumilast (Biocrea, Radebeul, Germany; MW 403.21) were dissolved in dimethylsulfoxide (DMSO) and kept at 4 ° C.; this stock solution was used for further dilutions in 0.5% methylcellulose. Each of rolipram and roflumilast is used in form of its free base. All injected solutions consisted of 0.5% methylcellulose with a fixed DMSO percentages (1.2%) (vehicle).
Object Location Task Studies in Rodents For the Object Location Task (OLT), doses of 0.01 mg/kg, 0.03 mg/kg and 0.1 mg/kg of Rolipram or Roflumilast or vehicle were administered subcutaneously (s.c.). Based on previous findings, PDE4 inhibitor single administration was performed 3 hours after the first trial as this has an optimum effect on object memory performance. The injection volume was 5 μl/g.
The OLT apparatus consisted of a circular arena, 40 cm in diameter. Half of the 40 cm transparent polyvinyl chloride wall was covered from the outside with white paper. Two objects were placed symmetrically about 10 cm away from the wall on the separation line, between the transparent and covered side of the arena. Four different sets of objects were available: (1) a cone made of brass (maximal diameter 6 cm and total height 3.8 cm), (2) a transparent glass bottle (diameter 2.7 cm, height 8.5 cm) filled with sand and water, (3) a massive metal cube (2.5 cm×5 cm×7.5 cm) with two holes (diameter 1.5 cm), and (4) a massive aluminum cube with a tapering top (4.5 cm×4.5 cm×8.5 cm).
A testing session comprised two trials of 4 minutes. Before each trial, mice were placed in an empty Makrolon cage (incubation cage) for the same amount of time as the trial (4 min). During the first trial (T1), two identical objects were placed symmetrically about 10 cm away from the wall on the separation line between the transparent and covered side of the arena. After the first exploration period of 4 min, the mouse was put back in its home cage. Mice then received treatment at 3 hours post T1. Subsequently, after a predetermined delay interval (24h), the mouse was placed in the apparatus for the second trial of 4 min (T2). Two identical objects as in T1 were used; one object was placed in the previously used position, whereas the other was placed in a novel position. The novel position of the object could either be a fixed distance towards the front or a fixed distance towards the back of the arena for both objects. The times spent exploring each object during T1 and T2 were recorded manually using a personal computer. All objects and locations were used in a balanced manner to exclude possible object and/or location preferences. To avoid olfactory cues, the objects were thoroughly cleaned with 70% ethanol after each trial. The testing order of conditions was determined randomly.
Statistical Data Analysis The measurements reflected the time spent by the mice in exploring each object during T1 and T2. The time spent in exploring the two identical samples in T1 were represented by ‘a1’ and ‘a2’, respectively. The time spent in exploring the sample and the new object in T2 were represented by ‘a’ and ‘b’, respectively. From these exploration times the following variables were calculated: e1, e2, and d2 (Table 1). The d2 index is a relative measure of discrimination corrected for exploratory activity. […]

[3] = system: xylazine/ketamine induced α2-adrenergic receptor-mediated anesthesia; experiment: xylazine/ketamine induced α2-adrenergic receptor-mediated anesthesia test (emetic potential); type: in vivo; conditions: in vivo, 0.3 mg/kg
From the text: Since emesis is a typical side-effect of phosphodiesterase 4 inhibitors the emetic potential of roflumilast and rolipram was investigated in parallel using the xylazine/ketamine induced α2-adrenergic receptor-mediated anesthesia test. The results confirmed that the two phosphodiesterase 4 inhibitors have different effects on emesis.

[4] = system: scopolamine induced memory deficit in male Wistar rats; experiment: Object recognition task (ORT), scopolamine induced memory deficit; type: in vivo; conditions: scopolamine 0.1 mg/kg ip + vehicle
From the text: The objective of this study is to evaluate the efficacious dose range of roflumilast with regard to cognitive improvement effects by using scopolamine induced memory deficit on object memory performance in male Wistar rats. Memory acquisition processes are investigated using the object recognition test (ORT).
Maintenance of Animals: Sixteen 3-4 month old male Wistar rats (Charles River, Sulzfeld, Germany) were used for the study. All animals were housed individually in standard green line Tecniplast IVC cages on stardust bedding. The animals were housed on a reversed 12/12 h light/dark cycle (lights on from 07:00 pm to 07:00 am) and had free access to food and water. The rats were housed and tested in the same room. A radio, playing softly, provided background noise in the room. All testing was performed between 09:00 am and 06:00 pm.
Preparation of Compounds: Drugs were prepared daily, except as indicated otherwise. Roflumilast (Takeda, Konstanz, Germany, MW 403.21) was dissolved in 98% methylcellulose solution (0.5% methylcellulose) and 2% Tween 80. Roflumilast in doses of 0 (vehicle), 0.0001, 0.0003, 0.001, 0.003, 0.01 and 0.03 mg/kg was administered intraperitoneally (ip, injection volume 1 ml/kg). Scopolamine (in form of scopolamine hydrobromide) was dissolved in saline (0.9% NaCl). Scopolamine hydrobromide was administered intraperitoneally at a dose of 0.1 mg/kg (ip, injection volume 1 ml/kg). Scopolamine and roflumilast were administered 30 min before T1.
Object Recognition Task in Rats: The ORT was performed as described elsewhere (Ennaceur and Delaceur, 1988, Behav Brain Res, Vol 31, pp 47-59; Akkerman et al; 2012, Behav Brain Res, Vol 232, pp 335-347). The apparatus consisted of a circular arena, 83 cm in diameter. The back half of the 40 cm high wall was made of grey PVC and the front was made of transparent PVC. Fluorescent red tubes and a light bulb provided a constant illumination of about 20 lux on the floor of the apparatus. The light intensity was equal in the different parts of the apparatus.
Two objects were placed in symmetrical positions at the mid-line between the gray and transparent halves of the arena, about ten centimeters away from wall. Four different sets of objects were available: 1) a standard 1 L brown transparent glass bottle (diameter 10 cm, height 22 cm) filled with water, 2) a metal cube (10.0×5.0×7.5 cm) with two holes (diameter 1.9 cm), 3) a cone consisting of a gray PVC base (maximal diameter 18 cm) with a collar on top made of brass (total height 16 cm), and 4) an aluminium cube with a tapering top (13.0×8.0×8.0 cm). Objects were presented to the animals in a balanced manner to avoid object or place biases. Rats were unable to displace the objects.
A test session comprised two trials, each with durations of 3 min. During the learning trial (T1) the apparatus contains two identical objects (object al and a2). Rats were always introduced into the apparatus with their nose towards the transparent wall segment (i.e. facing outwards to the front of the arena). Subsequently, rats were put back in its home cage for a 1 h interval. After the retention interval, rats were put back into the arena for the […] (T2). In T2, the two objects from T1 were replaced by one identical copy (a3) and a different novel object (b). The times spent in exploring each object during T1 and T2 were recorded manually on a personal computer.
Exploration was defined in the following manner: directing the nose to the object at a distance of no more than 2 cm and/or touching the object with the nose. Sitting on the object was not considered as exploratory behavior. In order to avoid the presence of olfactory cues, the objects were thoroughly cleaned with a 70% ethanol solution before each trial.
Prior to compound testing, the animals were handled for 5 min on 2 consecutive days and allowed to explore the ORT arena, also for 5 min. […]

In the case of `O=C(Nc1c(Cl)c[n+]([O-])cc1Cl)c1ccc(OC(F)F)c(OCC2CC2)c1` [roflumilast-N-oxide, 3-cyclopropyl-methoxy-4-difluoromethoxy-N-(3,5-dichloro-1-oxypyrid-4-yl)benzamide], the “exposure (concentrations in plasma)” value ([1]; elderly study, interim analysis, 100, 250, 1000 mcg) is listed as “consistent with those previously reported”, the “steady state plasma concentration levels in once a day repeated dosing compared to once a day single dosing” value ([1]; humans, once a day (24 h) regimen) is listed as “about two-fold” and the “share of overall phosphodiesterase 4 inhibition in humans” value (phosphodiesterase 4) is listed as “more than 90%”.

With `COc1ccc(C2CNC(=O)C2)cc1OC1CCCC1` (stereo not drawn) [rolipram] the “d2 index, discrimination index between the new and familiar objects for T2” value (from here on “d2 index … for T2”) ([2]; 0.01 mg/kg s.c.) was 0.08 (0.05), the “d2 index compared with the vehicle condition (post-hoc Bonferroni t-test)” value ([2]; 0.03 mg/kg s.c.) was “differed significantly from the vehicle condition” and the “d2 index … for T2” value ([2]; 0.03 mg/kg s.c.) was 0.13 (0.05) #. The “d2 index compared with zero (one-sample t-test)” value ([2]; 0.03 mg/kg s.c., after twenty-four hours) was “significantly differed from zero”, the “d2 index … for T2” value ([2]; 0.1 mg/kg s.c.) was 0.07 (0.05) and the “effect on spatial memory measured by the object location task test” value ([2]; single subcutaneous administration of 0.03 mg/kg) was “effective”. For the same molecule, the emetic potential [3] was “strong emetic potential”.

For `CN1[C@@H]2C[C@@H](OC(=O)[C@H](CO)c3ccccc3)C[C@H]1[C@@H]1O[C@@H]12` [scopolamine], the “d2 value compared to the vehicle condition (post-hoc Bonferroni t-test)” value [4] was “significantly lower” and the “d2 (discrimination index)” value ([4]; 1 h retention, mean (SEM)) was 0.01 (0.08).
